Measured values published in article PMC11091220, “Metabolism-driven in vitro/in vivo disconnect of an oral ERɑ VHL-PROTAC” (Communications Biology, 2024).
Where “and” joins values, the source holds several entries; their conditions need not be identical. Identical values can stand only once. Like-named read-outs stand apart in the source and are kept apart here.

What was measured:
[1] = target: T1, ERα (Homo sapiens, UniProt P03372); test: ERα high throughput imaging degradation assay in MCF7 cells; format: cell-based; details: for Dmax: MCF7; for DC50: MCF7 cells, 20 to 24 hours; for Degradation vs fulvestrant: listed as Cmp 7
T1 construct: endogenous in cells; host or cells: MCF7 (also MCF7 engineered to express Cas9)
T1 sequence (P03372 1-595): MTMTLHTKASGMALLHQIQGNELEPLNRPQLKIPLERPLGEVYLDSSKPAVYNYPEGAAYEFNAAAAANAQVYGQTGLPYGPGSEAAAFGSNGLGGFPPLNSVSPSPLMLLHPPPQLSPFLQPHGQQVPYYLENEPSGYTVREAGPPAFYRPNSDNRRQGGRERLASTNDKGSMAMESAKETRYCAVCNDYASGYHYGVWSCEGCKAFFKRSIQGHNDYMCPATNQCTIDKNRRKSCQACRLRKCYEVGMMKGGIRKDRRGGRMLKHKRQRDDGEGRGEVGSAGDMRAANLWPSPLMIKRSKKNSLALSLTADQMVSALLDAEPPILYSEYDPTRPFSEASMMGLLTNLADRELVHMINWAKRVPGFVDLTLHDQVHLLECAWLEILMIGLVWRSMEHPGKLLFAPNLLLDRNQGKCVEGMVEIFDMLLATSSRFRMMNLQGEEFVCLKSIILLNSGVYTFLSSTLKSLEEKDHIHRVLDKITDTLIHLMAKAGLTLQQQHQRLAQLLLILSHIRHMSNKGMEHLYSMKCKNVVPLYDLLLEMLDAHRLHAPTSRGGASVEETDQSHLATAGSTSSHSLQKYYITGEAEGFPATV
Method: Cells were fixed, permeabilised and stained with anti-ERα (rabbit clone SP1, Thermo) and anti-PR (mouse clone PgR 636, Dako) antibodies followed by secondary AlexaFluor 594 goat anti-rabbit and AlexaFluor 488 goat anti-mouse IgG antibodies. Imaging was using the Thermo Cellinsight scanner and average fluorescence intensity was analysed using Genedata.

[2] = target: T2, recombinant human ERα ligand binding domain (LBD) (Homo sapiens, UniProt P03372); test: ERα binding assay (LanthaScreen TR-FRET competition)
T2 construct: purchased Invitrogen PV4543
T2 sequence (P03372 311-547 limits assumed): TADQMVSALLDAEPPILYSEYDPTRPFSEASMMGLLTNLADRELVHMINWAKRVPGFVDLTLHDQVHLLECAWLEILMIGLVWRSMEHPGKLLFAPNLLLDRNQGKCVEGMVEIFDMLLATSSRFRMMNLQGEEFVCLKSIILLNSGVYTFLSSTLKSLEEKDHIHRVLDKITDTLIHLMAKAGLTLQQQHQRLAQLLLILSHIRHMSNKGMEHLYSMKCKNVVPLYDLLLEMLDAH
Method: The ability of compounds to bind to isolated ERα Ligand binding domain (ERα–LBD (GST)) was assessed in competition assays using a LanthaScreenTM Time-Resolved Fluorescence Resonance Energy Transfer (TR-FRET) detection end-point. For the LanthaScreen TR-FRET endpoint, a suitable fluorophore (Fluormone ES2, Product code P2645) and recombinant human ERα ligand binding domain (LBD) (product code PV4543) were purchased from Invitrogen and used to measure compound binding. A terbium-labelled anti-GST antibody (Product code PV3551) is used to indirectly label the receptor by binding to its GST tag, and competitive binding is detected by a test compounds’ ability to displace the fluorescent ligand resulting in a loss of TR-FRET signal between the Tb-anti-GST antibody and the tracer. The assay was performed with all reagent additions carried out using the Beckman Coulter BioRAPTR FRD microfluidic workstation: […]

[3] = Mouse hepatocyte intrinsic clearance; format: in vitro ADME; details: for hepatocyte CLint at 1 µM: male, CD-1, mouse, hepatocytes
Method: Livers from CD-1 male mice weighing 30-35 g were digested and perfused using D-Hanks solution containing EDTA or collagenase. Once digested the liver was transferred to a petri dish and the hepatocytes were prepared by washing and centrifuging with a Leibovitz-15 medium containing 50% isotonic percoll. A cell viability >80% was required to progress the cells. The test compound was prepared to 10 mM in 100% DMSO and further diluted to 100 μM in 100% acetonitrile. The hepatocyte incubations were prepared in Leibovitz’s L-15 Medium pH 7.4 containing 1 million hepatocytes/mL and a final compound concentration of 1 µM. Cell viability was determined using a Cellometer Vision and >80% cell viability was required to proceed with the compound incubation. The compound/cell solution (250 µL) was incubated for 2 h at 37 °C and shaken at 900 rpm on an Eppendorf Thermomixer Comfort plate shaker. Samples (20 µL) were taken at 0.5, 5, 15, 30, 45, 60, 80, 100, and 120 min and quenched with 100 μL of 100% ice-cold acetonitrile. Samples were shaken at 800 rpm for 2 min and centrifuged at 4000 rpm for 20 min at 4 °C to pellet precipitated protein. The supernatant fraction was diluted 1:5 with deionised water, shaken at 1000 rpm for 2 min, and further diluted 1:1 with deionised water. Samples were analysed by LC-MS/MS[17].

[4] = target: ESR1-Nanoluciferase fusion protein (Homo sapiens, UniProt P03372); test: ERα nanoluciferase degradation assay; format: cell-based; details: for DC50: 24 hours, read-out: ERα nano-luciferase degradation DC50; for IC50: Table 1 source data, mean, read-out: ERa nanocluciferase degradation DC50 (nM), Mean IC50; for Dmax: read-out: ERα nano-luciferase Dmax
Method: MCF7 pTRIPZ Cas9 cells stably transfected with pSMPNeo dual Luc ESR1 vector (containing ESR1-Nanoluciferase fusion protein/reporter and a Firefly luciferase reporter) were seeded into T175 flasks and incubated for 48 hours in RPMI 1640 media containing 10% (v/v) foetal bovine serum (FBS) and 2 mM L-Glutamine. The cells were then seeded at 20000 cells/well into 384-well plates containing compounds at concentrations ranging from 3.125 µM to 15.9 pM. Following 24 hours incubation (37 °C, 5% CO2), media was removed and ONE-Glow^TM EX luciferase reagent (Promega) was added to each well. Firefly luminescence was measured after 5 minutes using an Envision (PerkinElmer). NanoDLR^TM Stop and Glo® reagent (Promega) was added and incubated for ten minutes (room temperature), before measuring Nano luminescence using the Envision. Wells containing vehicle or 3 µM Fulvestrant were used to normalise data, and degradation of ESR1-Nanoluciferase was analysed using Genedata Screener.

[5] = 0% vehicle control, 100% fulvestrant, read-out: ERα imaging Dmax
[6] = mean ± s.d., read-out: ERα binding IC50
[7] = pH 7.4, read-out: muHeps (mouse hepatocytes) clearance
[8] = MCF7, read-out: ERα imaging Dmax, 0% vehicle control, 100% fulvestrant
[9] = Table S4 source data, mean, read-out: ERa binding, Mean
[10] = Table S4 source data, read-out: ERa degradation, Dmax (%)

ESR1-Nanoluciferase fusion protein, sequence (P40337 whole entry, one chain of several, the tested form may be a part): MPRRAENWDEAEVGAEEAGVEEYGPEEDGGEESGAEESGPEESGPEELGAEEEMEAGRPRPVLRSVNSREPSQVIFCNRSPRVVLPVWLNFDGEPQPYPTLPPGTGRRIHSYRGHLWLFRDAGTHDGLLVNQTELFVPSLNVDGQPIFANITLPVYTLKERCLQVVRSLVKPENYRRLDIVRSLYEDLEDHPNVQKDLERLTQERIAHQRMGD

SMILES | DC50 [1] | IC50 [2, 6] | hepatocyte CLint at 1 µM [3, 7] | Dmax [1, 10] | further results
Cc1ncsc1-c1ccc(CNC(=O)[C@@H]2C[C@@H](O)CN2C(=O)[C@@H](NC(=O)COCCOc2cc(F)c([C@@H]3c4[nH]c5ccccc5c4C[C@@H](C)N3CC(C)(C)F)c(F)c2)C(C)(C)C)cc1 [Compound 1] | 0.6 ± 1.2 nM | 1.3 nM | 22 µL/min/1e6 cells |  | Dmax [1, 5]: 89 ± 1%
Cc1ncsc1-c1ccc(CNC(=O)[C@@H]2C[C@@H](O)CN2C(=O)[C@@H](NC(=O)COCCOCCOc2cc(F)c([C@@H]3c4[nH]c5ccccc5c4C[C@@H](C)N3CC(C)(C)F)c(F)c2)C(C)(C)C)cc1 [Compound 2] | 0.8 nM | 0.6 nM | 40 µL/min/1e6 cells |  | Dmax [1, 5]: 94%
Cc1ncsc1-c1ccc(CNC(=O)[C@@H]2C[C@@H](O)CN2C(=O)[C@@H](NC(=O)COCCOCCOCCOc2cc(F)c([C@@H]3c4[nH]c5ccccc5c4C[C@@H](C)N3CC(C)(C)F)c(F)c2)C(C)(C)C)cc1 [Compound 3] | 0.3 ± 0.1 nM | 0.3 nM | 31 µL/min/1e6 cells |  | Dmax [1, 8]: 99 ± 2%; DC50 [4]: 3.1 nM; IC50 [4]: 3.1 nM; Dmax [4]: 124%
Cc1ncsc1-c1ccc(CNC(=O)[C@@H]2C[C@@H](O)CN2C(=O)[C@@H](NC(=O)COCCOCCOCCOCCOc2cc(F)c([C@@H]3c4[nH]c5ccccc5c4C[C@@H](C)N3CC(C)(C)F)c(F)c2)C(C)(C)C)cc1 [Compound 4] | 3.2 nM | 6.3 nM | 41 µL/min/1e6 cells |  | Dmax [1, 5]: 101%
Cc1ncsc1-c1ccc(CNC(=O)[C@@H]2C[C@@H](O)CN2C(=O)[C@@H](NC(=O)COCCN2CCN(CCOc3cc(F)c([C@@H]4c5[nH]c6ccccc6c5C[C@@H](C)N4CC(C)(C)F)c(F)c3)CC2)C(C)(C)C)cc1 [Compound 6] | 0.5 ± 0.4 nM | 1.3 nM | 11 µL/min/1e6 cells |  | Dmax [1, 8]: 100 ± 0.5%; DC50 [4]: 46 ± 27 nM; IC50 [4]: 46 nM; Dmax [4]: 88 ± 1%
Cc1ncsc1-c1ccc(CNC(=O)[C@@H]2C[C@H](O)CN2C(=O)[C@@H](NC(=O)COCCCOCCCOc2cc(F)c([C@@H]3c4[nH]c5ccccc5c4C[C@@H](C)N3CC(C)(C)F)c(F)c2)C(C)(C)C)cc1 [Compound 7] | 3.1 nM | 1 nM |  |  | Degradation vs fulvestrant ([1]; Log M -6.5, MCF7, 24 h): 64.0% and 68.3%; Degradation vs fulvestrant ([1]; Log M -7.0): 68.3% and 71.6% and 59.3% and 58.8%; Degradation vs fulvestrant ([1]; Log M -7.5): 65.0% and 59.3% and 59.1% and 57.9%; Degradation vs fulvestrant ([1]; Log M -7.9): 65.6% and 48.2% and 57.7% and 56.0%; Degradation vs fulvestrant ([1]; Log M -8.5): 49.3% and 36.8% and 53.9% and 47.6%; Degradation vs fulvestrant ([1]; Log M -9.0): 32.2% and 32.7% and 45.9% and 42.5%; Dmax [1, 8]: ~65%; DC50 [4]: > 3000 nM; IC50 [4]: > 3000 nM
Cc1ncsc1-c1ccc(CNC(=O)[C@@H]2C[C@@H](O)CN2C(=O)[C@@H](NC(=O)COCCOCCCCOc2cc(F)c([C@@H]3c4[nH]c5ccccc5c4C[C@@H](C)N3CC(C)(C)F)c(F)c2)C(C)(C)C)cc1 [Compound 9] | 0.5 ± 0.1 nM |  |  |  | ERa degradation, Dmax (%) ([1]; Table S4 source data): 100%; IC50 [2, 9]: 0.6 nM; muHeps, Mean Clint (mL/min/10^6 cells) ([3]; mouse hepatocytes, Table S4 source data): 14 mL/min/10^6 cells
Cc1ncsc1-c1ccc(CNC(=O)[C@@H]2C[C@@H](O)CN2C(=O)[C@@H](NC(=O)COCCCOCCOc2cc(F)c([C@@H]3c4[nH]c5ccccc5c4C[C@@H](C)N3CC(C)(C)F)c(F)c2)C(C)(C)C)cc1 [Compound 10] | 0.4 nM |  | 20 ± 1 µL/min/1e6 cells | 100% | IC50 [2, 9]: 0.5 nM; hepatocyte CLint at 1 µM ([3]; pH 7.4, mouse hepatocytes, Table S4 source data, read-out: muHeps, Mean Clint (mL/min/10^6 cells)): 19 µL/min/1e6 cells
Cc1ncsc1-c1ccc(CNC(=O)[C@@H]2C[C@@H](O)CN2C(=O)[C@@H](NC(=O)C2(OCCCOCCCOc3cc(F)c([C@@H]4c5[nH]c6ccccc6c5C[C@@H](C)N4CC(C)(C)F)c(F)c3)CC2)C(C)(C)C)cc1 [Compound 13] | 2 nM |  |  | 96% | IC50 [2, 9]: 1 nM
Cc1ncsc1-c1ccc(CNC(=O)[C@@H]2C[C@@H](O)CN2C(=O)[C@@H](NC(=O)COCCCc2cccc(COc3cc(F)c([C@@H]4c5[nH]c6ccccc6c5C[C@@H](C)N4CC(C)(C)F)c(F)c3)c2)C(C)(C)C)cc1 [Compound 14] | 4.9 nM |  |  | 103% | 
Cc1ncsc1-c1ccc(CNC(=O)[C@@H]2C[C@@H](O)CN2C(=O)[C@@H](NC(=O)COCc2cccc(CCCOc3cc(F)c([C@@H]4c5[nH]c6ccccc6c5C[C@@H](C)N4CC(C)(C)F)c(F)c3)c2)C(C)(C)C)cc1 [Compound 15] | 14 nM |  |  | 106% | 
